Measured values taken from patent publication US20080286335A1, “Enhancement Of The Calcium Sensing Receptor” (Smith & Nephew, Inc., priority 2007, published 2008).

Key:
[1] = system: mouse calvarial cells; experiment: Von Kossa staining (mineralised matrix) of mouse calvarial cell monolayers; format: cell-based; conditions: compared to 2.5 mM CaCl2 alone
Method: (§1) Osteoblastic cells were isolated from mouse calvarial tissue dissected from the heads of 2-3 day old freshly slaughtered mice pups using sequential enzymatic digestion. Cells were maintained in DMEM+10% Foetal Bovine Serum (FBS) at 37° C./5% CO2 in order to expand the cells before experimental use. Human dermal fibroblasts (HDFs) were used in experiments as an additional negative control.
Cells were seeded into 24 well plates at a concentration of 5×10^4 cells/well in αMEM+10% FBS (n=6). Experiments were set up to examine the amount of mineralisation at two different concentrations of calcium chloride (CaCl2) (1.8 mM and 2.5 mM) with and without L-amino acids (L-phenylalanine and L-tryptophan at 2.5 mM). Cells were cultured at 37° C./5% CO2 with media changes three times a week. […] Alizarin red stained monolayers were destained and the stain quantified spectophotometrically, whilst the Von Kossa staining was quantified using image analysis.

[2] = system: mouse calvarial cells; experiment: Alizarin red staining (calcium deposition) of mouse calvarial cell monolayers; format: cell-based; conditions: 2.5 mM amino acid with 2.5 mM CaCl2, 2 week period, compared to 2.5 mM CaCl2 alone, FIG. 1 and 2
Method: as §1
Cells were seeded into 24 well plates at a concentration of 5×10^4 cells/well in αMEM+10% FBS (n=6). Experiments were set up to examine the amount of mineralisation at two different concentrations of calcium chloride (CaCl2) (1.8 mM and 2.5 mM) with and without L-amino acids (L-phenylalanine and L-tryptophan at 2.5 mM). Cells were cultured at 37° C./5% CO2 with media changes three times a week. After 2 weeks and 3 weeks, the monolayers were stained to show the extent of mineralisation using Alizarin red (calcium deposition) and after 4 weeks with Von Kossa (mineralised matrix). Alizarin red stained monolayers were destained and the stain quantified spectophotometrically, whilst the Von Kossa staining was quantified using image analysis.

Compound	amount of mineralised matrix ([1]; 2.5 mM L-Phe with 2.5 mM CaCl2, 2 week period, Von Kossa image analysis, FIG. 4)	amount of mineralised matrix ([1]; 2.5 mM L-Phe with 2.5 mM CaCl2, 4 week period, Von Kossa staining, FIG. 3)	calcium deposition [2]
N[C@@H](Cc1ccccc1)C(=O)O [L-Phe, L-phenylalanine]	significantly increases	significantly increases	significantly increases
N[C@@H](Cc1c[nH]c2ccccc12)C(=O)O [L-Trp, L-tryptophan]	–	–	significantly increases
